Consider one molecule from patent US20120270237A9, “METHODS FOR THE IDENTIFICATION OF KINASE INTERACTING MOLECULES AND FOR THE PURIFICATION OF KINASE PROTEINS” (Cellzone AG, priority 2009, published 2012).

Common to all, as to assay: Kinobeads competition binding, HL60 cell lysate
Holding throughout (details): 10 μM free compound

The target of one test is RSK2 (Homo sapiens, UniProt P51812). The arrangement: endogenous in cells. As to the method:
(§1) To one aliquot of cell lysate 10 μM of the free compound (FIG. 3, CZC31326) was added and allowed to bind to proteins in the lysate. Then the affinity matrix with the immobilized compound (Example 1) was added to capture proteins that were not interacting with the previously added free compound. Beads were separated from the lysate and bead bound proteins were eluted in SDS sample buffer and subsequently separated by SDS-Polyacrylamide gel electrophoresis (FIG. 4). Suitable gel bands were cut out and subjected to in-gel proteolytic digestion with trypsin. The second lysate aliquot was processed identically, however no free compound was added (DMSO solvent control). Peptides originating from samples 1 and 2 were labeled with iTRAQ reagents (iTRAQ 114 and iTRAQ 117) and the combined samples were analyzed with a nano-flow liquid chromatography system coupled online to a tandem mass spectrometer (LC-MS/MS) experiment followed by iTRAQ reporter ion quantification in the MS/MS spectra (Ross et al., 2004. Mol. Cell. Proteomics 3(12):1154-1169). Further experimental protocols can be found in WO2006/134056 and a previous publication (Bantscheff et al., 2007. Nature Biotechnology 25, 1035-1044). Sepharose-beads with the immobilized compound (100 μl beads per pull-down experiment) were equilibrated in lysis buffer and incubated with a cell lysate sample containing 50 mg of protein on an end-over-end shaker (Roto Shake Genie, Scientific Industries Inc.) for 2 hours at 4° C. Beads were collected, transferred to Mobicol-columns (MoBiTech 10055) and washed with 10 ml lysis buffer containing 0.4% NP40 detergent, followed by 5 ml lysis buffer containing 0.2% detergent. To elute bound proteins, 60 μl 2×SDS sample buffer was added to the column. The column was incubated for 30 minutes at 50° C. and the eluate was transferred to a siliconized microfuge tube by centrifugation. Proteins were then alkylated with 108 mM iodoacetamid. Proteins were then separated by SDS-Polyacrylamide electrophoresis (SDS-PAGE). The peptide extracts of samples treated with 10 μM of free compound (CZC31326) and the solvent control (0.5% DMSO) were treated with different variants of the isobaric tagging reagent (iTRAQ Reagents Multiplex Kit, part number 4352135, Applied Biosystems, Foster City, Calif., USA). The iTRAQ reagents are a set of multiplexed, amine-specific, stable isotope reagents that can label peptides on amino groups in up to four different biological samples enabling simultaneous identification and quantitation of peptides. The iTRAQ reagents were used according to instructions provided by the manufacturer. The samples were resuspended in 10 μl 50 mM TEAB solution, pH 8.5 and 10 μl ethanol were added. The iTRAQ reagent was dissolved in 120 μl ethanol and 10 μl of reagent solution were added to the sample. The labeling reaction was performed at room temperature for one hour on a horizontal shaker and stopped by adding 5 μl of 100 mM TEAB and 100 mM glycine in water. The two labeled sampled were then combined, dried in a vacuum centrifuge and resuspended in 10 μl of 0.1% formic acid in water. Relative protein quantitation was performed using peak areas of iTRAQ reporter ion signals essentially as described in an earlier publication (Bantscheff et al., 2007. Nature Biotechnology 25, 1035-1044).

In another test the target is STK33 (Homo sapiens, UniProt Q9BYT3). The arrangement: endogenous in cells. As to the method:
as §1

Another test addresses MARK3 (Homo sapiens, UniProt P27448). Set-up: endogenous in cells. As to the method: as §1
Another test addresses CaMK2d (Homo sapiens, UniProt Q13557). The arrangement: endogenous in cells. As to the method:
as §1

For another test, the target named is CDC2 (Homo sapiens, UniProt P06493). Set-up: endogenous in cells. Here is the method:
as §1

The next test has as its target JAK2 (Homo sapiens, UniProt O60674). The arrangement: endogenous in cells. Here is the method:
as §1

The next test addresses T1, PIP5K2A (Homo sapiens, UniProt P48426).
T1 sequence (P48426 1-406): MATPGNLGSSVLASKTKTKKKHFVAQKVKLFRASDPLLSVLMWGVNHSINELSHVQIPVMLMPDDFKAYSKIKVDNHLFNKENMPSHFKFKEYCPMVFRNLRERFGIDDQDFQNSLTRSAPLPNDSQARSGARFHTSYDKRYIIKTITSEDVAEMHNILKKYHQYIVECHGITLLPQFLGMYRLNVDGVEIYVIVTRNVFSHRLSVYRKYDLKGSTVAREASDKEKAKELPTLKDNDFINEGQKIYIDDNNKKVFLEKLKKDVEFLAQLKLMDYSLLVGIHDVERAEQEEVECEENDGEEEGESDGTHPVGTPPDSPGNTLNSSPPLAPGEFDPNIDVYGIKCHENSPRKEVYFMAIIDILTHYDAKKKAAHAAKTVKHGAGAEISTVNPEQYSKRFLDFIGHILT
The arrangement: endogenous in cells. As to the method:
as §1

The next test deals with T2, ULK3 (Homo sapiens, UniProt Q6PHR2).
T2 sequence (Q6PHR2 1-472): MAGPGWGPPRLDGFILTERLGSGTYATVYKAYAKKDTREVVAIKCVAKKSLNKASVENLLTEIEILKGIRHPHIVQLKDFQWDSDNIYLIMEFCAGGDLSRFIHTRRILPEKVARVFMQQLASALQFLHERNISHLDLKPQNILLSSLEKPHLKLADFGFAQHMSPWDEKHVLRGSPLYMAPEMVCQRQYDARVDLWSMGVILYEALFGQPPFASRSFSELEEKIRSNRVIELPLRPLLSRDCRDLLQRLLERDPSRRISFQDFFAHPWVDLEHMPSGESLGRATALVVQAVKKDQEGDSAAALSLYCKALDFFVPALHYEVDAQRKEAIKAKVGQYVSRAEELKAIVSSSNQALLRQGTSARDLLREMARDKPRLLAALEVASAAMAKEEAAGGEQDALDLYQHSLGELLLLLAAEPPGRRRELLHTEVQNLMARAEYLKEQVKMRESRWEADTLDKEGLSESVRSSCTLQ
The arrangement: endogenous in cells. Here is the method:
as §1

For a further test, the target named is LOK (Homo sapiens, UniProt O94804). The arrangement: Identified kinases with CZC31326 from HL60 lysate; endogenous in cells; host or cells: HL60. As to the method:
as §1, with “The iTRAQ reagents were used according to instructions provided by the manufacturer. The samples were resuspended in 10 μl 50 mM TEAB solution, pH 8.5 and 10 μl ethanol were added. The iTRAQ reagent was dissolved in 120 μl ethanol and 10 μl of reagent solution were added to the sample. The labeling reaction was performed at room temperature for one hour on a horizontal shaker and stopped by adding 5 μl of 100 mM TEAB and 100 mM glycine in water. The two labeled sampled were then combined, dried in a vacuum centrifuge and resuspended in 10 μl of 0.1% formic acid in water.” left out

In a further test the target is MAP2K1 (Homo sapiens, UniProt Q02750). Set-up: Identified kinases with CZC31326 from HL60 lysate; endogenous in cells; host or cells: HL60. Here is the method:
as §1, with “The iTRAQ reagents were used according to instructions provided by the manufacturer. The samples were resuspended in 10 μl 50 mM TEAB solution, pH 8.5 and 10 μl ethanol were added. The iTRAQ reagent was dissolved in 120 μl ethanol and 10 μl of reagent solution were added to the sample. The labeling reaction was performed at room temperature for one hour on a horizontal shaker and stopped by adding 5 μl of 100 mM TEAB and 100 mM glycine in water. The two labeled sampled were then combined, dried in a vacuum centrifuge and resuspended in 10 μl of 0.1% formic acid in water.” left out

Each structure is given as a SMILES string.

Chain of MARK3 (P27448 whole entry): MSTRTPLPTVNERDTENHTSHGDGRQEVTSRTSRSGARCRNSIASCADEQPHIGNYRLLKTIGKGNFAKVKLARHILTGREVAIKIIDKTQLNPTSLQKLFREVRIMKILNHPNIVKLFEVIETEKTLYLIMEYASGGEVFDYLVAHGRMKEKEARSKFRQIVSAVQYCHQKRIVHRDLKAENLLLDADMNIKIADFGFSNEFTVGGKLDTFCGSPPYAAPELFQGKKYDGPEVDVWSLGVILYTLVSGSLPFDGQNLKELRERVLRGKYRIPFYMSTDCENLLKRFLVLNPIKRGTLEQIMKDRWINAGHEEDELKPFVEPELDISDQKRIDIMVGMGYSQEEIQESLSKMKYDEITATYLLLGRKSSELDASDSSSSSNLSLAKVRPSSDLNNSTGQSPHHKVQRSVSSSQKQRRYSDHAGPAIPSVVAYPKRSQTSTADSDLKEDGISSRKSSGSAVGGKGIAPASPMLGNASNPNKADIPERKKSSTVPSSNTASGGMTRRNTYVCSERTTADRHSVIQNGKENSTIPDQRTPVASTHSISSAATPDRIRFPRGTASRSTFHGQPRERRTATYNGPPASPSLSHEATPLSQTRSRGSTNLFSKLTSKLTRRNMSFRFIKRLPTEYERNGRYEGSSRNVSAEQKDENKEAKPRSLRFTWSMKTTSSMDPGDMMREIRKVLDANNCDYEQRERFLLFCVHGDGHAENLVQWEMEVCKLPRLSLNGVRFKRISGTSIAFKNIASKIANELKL
Chain of CaMK2d (Q13557 whole entry): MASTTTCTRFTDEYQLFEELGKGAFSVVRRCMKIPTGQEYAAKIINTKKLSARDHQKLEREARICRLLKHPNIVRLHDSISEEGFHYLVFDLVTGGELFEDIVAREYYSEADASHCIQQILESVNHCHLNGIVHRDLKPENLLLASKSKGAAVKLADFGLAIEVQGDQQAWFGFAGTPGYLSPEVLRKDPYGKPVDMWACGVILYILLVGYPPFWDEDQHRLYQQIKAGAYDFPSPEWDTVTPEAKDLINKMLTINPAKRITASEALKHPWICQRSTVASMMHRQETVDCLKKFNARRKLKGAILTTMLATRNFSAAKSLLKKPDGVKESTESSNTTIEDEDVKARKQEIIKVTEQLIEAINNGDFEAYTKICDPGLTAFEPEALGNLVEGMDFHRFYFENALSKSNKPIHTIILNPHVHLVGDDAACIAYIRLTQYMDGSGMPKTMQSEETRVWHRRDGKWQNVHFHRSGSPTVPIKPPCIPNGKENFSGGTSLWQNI
Chain of JAK2 (O60674 whole entry): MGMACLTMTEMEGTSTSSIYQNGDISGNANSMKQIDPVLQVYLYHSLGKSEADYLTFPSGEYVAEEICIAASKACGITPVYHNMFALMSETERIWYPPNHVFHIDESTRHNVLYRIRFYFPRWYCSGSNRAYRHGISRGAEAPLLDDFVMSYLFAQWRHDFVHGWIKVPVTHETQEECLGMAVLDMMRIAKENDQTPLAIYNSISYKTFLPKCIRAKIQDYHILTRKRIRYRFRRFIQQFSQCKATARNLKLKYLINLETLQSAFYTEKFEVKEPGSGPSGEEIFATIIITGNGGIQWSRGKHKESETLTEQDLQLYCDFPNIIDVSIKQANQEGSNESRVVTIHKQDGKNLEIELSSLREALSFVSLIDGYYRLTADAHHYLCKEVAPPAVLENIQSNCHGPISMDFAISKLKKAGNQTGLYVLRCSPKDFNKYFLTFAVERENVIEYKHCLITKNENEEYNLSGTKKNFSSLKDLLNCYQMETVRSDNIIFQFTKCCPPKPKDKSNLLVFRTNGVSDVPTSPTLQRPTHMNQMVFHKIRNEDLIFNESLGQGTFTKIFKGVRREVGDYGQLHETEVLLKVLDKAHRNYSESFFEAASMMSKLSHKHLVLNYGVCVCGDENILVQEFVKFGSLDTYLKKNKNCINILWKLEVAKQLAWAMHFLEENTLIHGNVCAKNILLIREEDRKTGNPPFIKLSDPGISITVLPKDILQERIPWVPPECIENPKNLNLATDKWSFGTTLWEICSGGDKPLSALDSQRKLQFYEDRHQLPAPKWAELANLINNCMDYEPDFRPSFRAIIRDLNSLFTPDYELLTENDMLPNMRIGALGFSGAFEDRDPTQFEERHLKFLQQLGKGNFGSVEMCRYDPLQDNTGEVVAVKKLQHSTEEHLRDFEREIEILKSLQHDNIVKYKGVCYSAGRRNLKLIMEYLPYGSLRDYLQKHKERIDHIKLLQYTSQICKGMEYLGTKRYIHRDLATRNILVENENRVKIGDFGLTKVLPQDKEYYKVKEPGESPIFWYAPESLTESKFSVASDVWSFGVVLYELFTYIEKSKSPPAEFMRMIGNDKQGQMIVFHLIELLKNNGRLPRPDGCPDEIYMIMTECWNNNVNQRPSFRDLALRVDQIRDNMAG
Chain of LOK (O94804 whole entry): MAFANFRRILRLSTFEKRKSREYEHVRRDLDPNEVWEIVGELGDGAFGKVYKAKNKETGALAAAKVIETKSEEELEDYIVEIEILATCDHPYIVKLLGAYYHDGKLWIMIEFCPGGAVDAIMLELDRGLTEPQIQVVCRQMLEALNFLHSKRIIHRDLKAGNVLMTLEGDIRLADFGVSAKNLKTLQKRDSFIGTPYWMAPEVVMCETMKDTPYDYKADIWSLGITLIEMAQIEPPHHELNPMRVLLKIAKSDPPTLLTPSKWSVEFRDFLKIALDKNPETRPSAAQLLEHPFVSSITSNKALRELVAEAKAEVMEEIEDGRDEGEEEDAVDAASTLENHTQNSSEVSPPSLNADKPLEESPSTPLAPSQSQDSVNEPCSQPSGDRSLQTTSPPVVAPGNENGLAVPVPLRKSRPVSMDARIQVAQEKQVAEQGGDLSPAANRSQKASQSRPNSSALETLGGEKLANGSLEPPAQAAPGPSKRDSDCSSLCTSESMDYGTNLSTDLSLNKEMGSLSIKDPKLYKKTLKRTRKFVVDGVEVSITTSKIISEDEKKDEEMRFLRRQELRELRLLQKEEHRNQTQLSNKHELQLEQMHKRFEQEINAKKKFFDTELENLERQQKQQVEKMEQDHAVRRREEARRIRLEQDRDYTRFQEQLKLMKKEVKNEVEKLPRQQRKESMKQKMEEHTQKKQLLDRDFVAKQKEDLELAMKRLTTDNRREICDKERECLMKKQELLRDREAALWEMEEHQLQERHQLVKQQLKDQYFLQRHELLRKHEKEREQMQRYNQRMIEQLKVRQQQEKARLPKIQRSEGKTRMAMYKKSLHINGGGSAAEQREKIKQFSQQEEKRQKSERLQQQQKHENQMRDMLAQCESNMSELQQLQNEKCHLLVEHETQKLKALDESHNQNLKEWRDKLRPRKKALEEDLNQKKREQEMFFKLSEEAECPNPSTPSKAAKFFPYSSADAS
Chain of CDC2 (P06493 whole entry): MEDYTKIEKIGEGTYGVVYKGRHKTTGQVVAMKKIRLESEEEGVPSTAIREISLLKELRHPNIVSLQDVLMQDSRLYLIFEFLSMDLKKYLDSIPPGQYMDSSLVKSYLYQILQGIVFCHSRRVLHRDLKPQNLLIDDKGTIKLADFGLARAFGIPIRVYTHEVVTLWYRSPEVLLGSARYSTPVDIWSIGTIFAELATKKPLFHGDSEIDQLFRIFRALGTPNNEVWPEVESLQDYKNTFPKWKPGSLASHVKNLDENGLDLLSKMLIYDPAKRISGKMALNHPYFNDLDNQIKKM
Chain of STK33 (Q9BYT3 whole entry): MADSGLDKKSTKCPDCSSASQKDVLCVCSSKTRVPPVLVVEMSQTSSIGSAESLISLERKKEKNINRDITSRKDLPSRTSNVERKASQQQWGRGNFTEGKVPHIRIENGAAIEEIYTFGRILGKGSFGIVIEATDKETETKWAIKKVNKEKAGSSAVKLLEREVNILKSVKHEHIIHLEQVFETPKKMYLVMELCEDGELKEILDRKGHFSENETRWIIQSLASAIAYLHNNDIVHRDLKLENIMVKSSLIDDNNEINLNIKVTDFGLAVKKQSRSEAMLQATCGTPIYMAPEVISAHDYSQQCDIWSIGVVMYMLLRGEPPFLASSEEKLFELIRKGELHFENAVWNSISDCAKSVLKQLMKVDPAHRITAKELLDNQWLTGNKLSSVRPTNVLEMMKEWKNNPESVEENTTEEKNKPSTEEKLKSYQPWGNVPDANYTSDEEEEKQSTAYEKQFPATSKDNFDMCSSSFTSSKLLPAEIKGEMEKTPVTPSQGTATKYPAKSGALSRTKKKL
Chain of MAP2K1 (Q02750 whole entry): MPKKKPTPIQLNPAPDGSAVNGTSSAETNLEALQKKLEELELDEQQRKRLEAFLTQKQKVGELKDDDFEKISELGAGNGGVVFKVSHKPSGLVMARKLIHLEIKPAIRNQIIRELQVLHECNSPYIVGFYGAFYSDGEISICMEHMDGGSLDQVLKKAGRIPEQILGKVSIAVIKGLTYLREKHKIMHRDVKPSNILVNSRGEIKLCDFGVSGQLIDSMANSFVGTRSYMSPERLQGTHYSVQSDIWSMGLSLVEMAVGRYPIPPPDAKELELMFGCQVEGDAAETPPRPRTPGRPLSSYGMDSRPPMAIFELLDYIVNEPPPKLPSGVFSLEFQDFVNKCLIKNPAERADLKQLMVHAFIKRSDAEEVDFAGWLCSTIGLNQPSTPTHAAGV

In general, inhibition refers to how much of the control response was suppressed. For `CS(=O)(=O)Nc1ccccc1Nc1nc(Nc2cccc(OCCN)c2)ncc1Cl` [CZC31326, N-(2-(2-(3-(2-aminoethoxy)phenylamino)-5-chloropyrimidin-4-ylamino)phenyl)methanesulfonamide], the inhibition at 10 µM at RSK2 was 96.7%; on STK33 it was 96.9%; on MARK3, 97.2%; on CaMK2d, 90.4%; on CDC2, 93.1%; at PIP5K2A it was 97.6%. For the same molecule, on MAP2K1, testing at 10 µM gave an inhibition of 85.2%. The Competition % came to 96.8% at JAK2, 97.7% at ULK3 and 95.3% on LOK.
